Data from US20080009418A1, “Selective Inhibitors” (Alchemia LTD., priority 2004, published 2008).

Columns and labels:
Human Melanocortin (MC3) = biological target: T1, Human Melanocortin (MC3) (Homo sapiens, UniProt P41968); experiment: Radioligand binding, human melanocortin MC3 membranes, FlashPlate, [125I]-NDP-αMSH; conditions: compound at 10 μM
T1 construct: purchased Perkin Elmer Biosignal
Method in brief: (§1)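 Cloned human receptor membranes were coated onto FlashPlate wells and incubated with radioligand and compound (added from a 0.5 mM DMSO daughter plate) for 1 hour at room temperature in the dark. Scintillation counting gave percent inhibition, with DMSO defining total and reference ligand defining non-specific binding.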

[1] = biological target: T2, Human melanin-concentrating hormone (MCH1) (Homo sapiens, UniProt Q99705); experiment: Radioligand binding, human melanin-concentrating hormone MCH1 membranes, FlashPlate, [125I]-S36057; conditions: compound at 10 μM; for A6: inhibition of radioligand binding, human melanin-concentrating hormone (MCH1): [125I]-S36057
T2 construct: purchased Perkin Elmer Biosignal
T2 sequence (Q99705 whole entry): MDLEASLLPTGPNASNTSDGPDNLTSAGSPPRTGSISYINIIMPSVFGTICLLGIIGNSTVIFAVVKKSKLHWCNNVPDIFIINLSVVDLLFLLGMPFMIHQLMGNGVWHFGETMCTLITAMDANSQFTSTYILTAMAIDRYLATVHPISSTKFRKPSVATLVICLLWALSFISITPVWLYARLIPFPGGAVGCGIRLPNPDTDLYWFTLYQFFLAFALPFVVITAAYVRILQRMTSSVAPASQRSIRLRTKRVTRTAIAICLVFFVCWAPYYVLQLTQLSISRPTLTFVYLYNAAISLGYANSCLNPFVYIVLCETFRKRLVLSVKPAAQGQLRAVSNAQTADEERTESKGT
Method in brief: as §1

Human κ-Opioid (KOP) = biological target: T3, Human κ-Opioid (KOP) (Homo sapiens, UniProt P41145); experiment: Radioligand binding, human κ-opioid (KOP) membranes, filtration, [3H]-Diprenorphine; conditions: compound at 10 μM
T3 construct: purchased Perkin Elmer Biosignal
T3 sequence (P41145 whole entry): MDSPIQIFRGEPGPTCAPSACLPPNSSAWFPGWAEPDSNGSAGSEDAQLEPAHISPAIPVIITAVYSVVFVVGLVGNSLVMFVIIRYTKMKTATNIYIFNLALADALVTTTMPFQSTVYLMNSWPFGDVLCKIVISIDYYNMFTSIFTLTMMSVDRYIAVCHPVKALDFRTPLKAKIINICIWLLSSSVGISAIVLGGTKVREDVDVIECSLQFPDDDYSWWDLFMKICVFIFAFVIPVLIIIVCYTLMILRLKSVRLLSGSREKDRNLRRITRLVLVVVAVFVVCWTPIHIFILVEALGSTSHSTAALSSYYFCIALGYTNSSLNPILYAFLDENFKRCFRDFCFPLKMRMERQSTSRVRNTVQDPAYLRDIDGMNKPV
Method in brief: (§2)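 Percent inhibition of radioligand binding measured on recombinant human membranes: NK1 with [125I]-Substance P, KOP with [3H]-Diprenorphine. Incubation 1 h at room temperature, then harvest onto 0.3% PEI-soaked filters, cold Tris-HCl pH 7.4 washes and scintillation counting; non-specific binding from reference ligand wells.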

Human μ-opioid (MOP) = biological target: T4, Human μ-opioid (MOP) (Homo sapiens, UniProt P35372); experiment: Radioligand binding, human μ-opioid (MOP) membranes, FlashPlate, [3H]-Naloxone; conditions: compound at 10 μM
T4 construct: purchased Perkin Elmer Biosignal
T4 sequence (P35372 whole entry): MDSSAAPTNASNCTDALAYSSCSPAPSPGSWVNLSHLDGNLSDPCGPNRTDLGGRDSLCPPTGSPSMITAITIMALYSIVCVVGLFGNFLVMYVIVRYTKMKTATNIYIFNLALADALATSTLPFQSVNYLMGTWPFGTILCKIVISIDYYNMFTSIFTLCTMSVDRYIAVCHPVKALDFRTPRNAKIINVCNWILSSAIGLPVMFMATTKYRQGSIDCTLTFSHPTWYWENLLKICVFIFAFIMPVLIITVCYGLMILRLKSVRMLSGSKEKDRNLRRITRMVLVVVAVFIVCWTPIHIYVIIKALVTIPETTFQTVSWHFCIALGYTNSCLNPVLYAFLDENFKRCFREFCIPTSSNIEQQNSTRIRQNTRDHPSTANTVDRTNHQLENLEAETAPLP
Method in brief: as §1

Human δ-opioid (DOP) = biological target: T5, Human δ-opioid (DOP) (Homo sapiens, UniProt P41143); experiment: Radioligand binding, human δ-opioid (DOP) membranes, FlashPlate, [3H]-Bremazocine; conditions: compound at 10 μM
T5 construct: purchased Perkin Elmer Biosignal
T5 sequence (P41143 whole entry): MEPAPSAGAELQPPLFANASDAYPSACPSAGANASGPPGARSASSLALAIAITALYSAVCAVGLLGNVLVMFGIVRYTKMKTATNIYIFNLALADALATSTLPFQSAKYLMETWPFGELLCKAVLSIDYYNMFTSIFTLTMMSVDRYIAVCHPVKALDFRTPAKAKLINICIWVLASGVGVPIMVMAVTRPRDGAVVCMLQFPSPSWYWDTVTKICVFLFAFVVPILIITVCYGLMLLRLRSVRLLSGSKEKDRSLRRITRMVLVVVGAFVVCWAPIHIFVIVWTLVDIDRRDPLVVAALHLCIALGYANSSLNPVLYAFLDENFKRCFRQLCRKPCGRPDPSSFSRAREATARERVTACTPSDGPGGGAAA
Method in brief: as §1

[2] = biological target: T6, Human neuropeptide Y (NPY-Y1) (Homo sapiens, UniProt P25929); experiment: Radioligand binding, human neuropeptide Y NPY-Y1 membranes, FlashPlate, [125I]-PYY; conditions: compound at 10 μM
T6 construct: purchased Perkin Elmer Biosignal
T6 sequence (P25929 1-384): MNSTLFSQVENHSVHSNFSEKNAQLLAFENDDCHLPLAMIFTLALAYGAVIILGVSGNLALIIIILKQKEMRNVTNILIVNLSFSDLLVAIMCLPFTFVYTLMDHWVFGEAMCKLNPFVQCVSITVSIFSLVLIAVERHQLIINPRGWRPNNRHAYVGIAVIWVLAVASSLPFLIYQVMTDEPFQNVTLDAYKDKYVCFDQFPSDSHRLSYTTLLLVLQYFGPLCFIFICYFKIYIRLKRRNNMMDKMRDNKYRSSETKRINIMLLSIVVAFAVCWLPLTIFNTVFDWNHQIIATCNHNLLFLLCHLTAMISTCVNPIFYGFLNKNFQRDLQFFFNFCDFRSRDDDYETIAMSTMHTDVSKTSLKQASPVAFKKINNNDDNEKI
Method in brief: as §1

Human melanocortin (MC5) = biological target: T7, Human melanocortin (MC5) (Homo sapiens, UniProt P33032); experiment: Radioligand binding, human melanocortin MC5 membranes, FlashPlate, [125I]-NDP-αMSH; conditions: compound at 10 μM
T7 construct: purchased Perkin Elmer Biosignal
T7 sequence (P33032 whole entry): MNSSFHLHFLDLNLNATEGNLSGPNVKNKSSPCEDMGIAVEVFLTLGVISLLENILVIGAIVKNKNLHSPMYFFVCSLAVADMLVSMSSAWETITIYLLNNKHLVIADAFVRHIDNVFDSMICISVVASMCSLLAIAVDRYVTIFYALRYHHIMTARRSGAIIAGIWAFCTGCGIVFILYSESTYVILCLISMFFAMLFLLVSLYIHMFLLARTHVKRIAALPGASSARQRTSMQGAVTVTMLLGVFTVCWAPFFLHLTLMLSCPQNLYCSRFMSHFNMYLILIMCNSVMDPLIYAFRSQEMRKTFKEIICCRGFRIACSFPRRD
Method in brief: as §1

Human Melanocortin (MC4) = biological target: T8, Human Melanocortin (MC4) (Homo sapiens, UniProt P32245); experiment: Radioligand binding, human melanocortin MC4 membranes, FlashPlate, [125I]-NDP-αMSH; conditions: compound at 10 μM
T8 construct: purchased Perkin Elmer Biosignal
T8 sequence (P32245 whole entry): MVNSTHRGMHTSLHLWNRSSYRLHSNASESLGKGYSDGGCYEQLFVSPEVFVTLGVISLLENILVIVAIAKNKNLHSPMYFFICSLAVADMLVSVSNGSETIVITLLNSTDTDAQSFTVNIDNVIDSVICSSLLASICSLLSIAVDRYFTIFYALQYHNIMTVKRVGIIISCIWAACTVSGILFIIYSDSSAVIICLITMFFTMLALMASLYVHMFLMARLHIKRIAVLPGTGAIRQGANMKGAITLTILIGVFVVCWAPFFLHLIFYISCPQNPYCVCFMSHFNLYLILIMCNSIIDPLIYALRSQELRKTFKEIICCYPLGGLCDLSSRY
Method in brief: as §1

Human neurokinin (NK1) = biological target: T9, Human neurokinin (NK1) (Homo sapiens, UniProt P25103); experiment: Radioligand binding, human neurokinin NK1 membranes, filtration, [125I]-Substance P; conditions: compound at 10 μM
T9 construct: purchased Perkin Elmer Biosignal
T9 sequence (P25103 whole entry): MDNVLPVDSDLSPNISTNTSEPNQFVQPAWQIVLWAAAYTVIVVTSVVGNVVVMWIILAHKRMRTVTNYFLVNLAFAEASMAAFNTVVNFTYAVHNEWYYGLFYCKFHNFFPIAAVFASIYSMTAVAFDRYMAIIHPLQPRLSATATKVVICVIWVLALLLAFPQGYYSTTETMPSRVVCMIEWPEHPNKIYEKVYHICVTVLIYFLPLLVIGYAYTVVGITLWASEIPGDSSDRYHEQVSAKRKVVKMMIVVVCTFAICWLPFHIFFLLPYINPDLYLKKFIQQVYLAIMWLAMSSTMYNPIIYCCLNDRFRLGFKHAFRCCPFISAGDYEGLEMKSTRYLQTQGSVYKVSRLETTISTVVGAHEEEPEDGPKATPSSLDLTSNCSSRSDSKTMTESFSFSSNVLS
Method in brief: as §2

Mouse urotensin (mUR2) = biological target: T10, Mouse urotensin (mUR2) (Mus musculus, UniProt Q8VIH9); experiment: Radioligand binding, mouse urotensin mUR2 membranes, FlashPlate, [125I]-Urotensin II; conditions: compound at 10 μM
T10 construct: purchased Perkin Elmer Biosignal
T10 sequence (Q8VIH9 1-385): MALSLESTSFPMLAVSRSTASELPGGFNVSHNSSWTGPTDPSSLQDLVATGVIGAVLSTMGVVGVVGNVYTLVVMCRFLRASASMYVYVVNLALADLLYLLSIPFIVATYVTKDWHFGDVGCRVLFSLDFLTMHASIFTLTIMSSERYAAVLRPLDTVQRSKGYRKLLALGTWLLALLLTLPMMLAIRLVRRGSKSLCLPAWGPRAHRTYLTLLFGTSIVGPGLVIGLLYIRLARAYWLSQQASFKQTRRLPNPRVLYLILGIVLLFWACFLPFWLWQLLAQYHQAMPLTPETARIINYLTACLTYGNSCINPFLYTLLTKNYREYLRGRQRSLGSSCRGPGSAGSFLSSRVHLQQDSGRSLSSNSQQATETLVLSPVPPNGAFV
Method in brief: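 Cloned mouse urotensin (mUR2) receptor membranes from Perkin Elmer Biosignal were immobilized in FlashPlate microplates using a proprietary coating. Each well got 19.5 μl buffer, then 0.5 μl of DMSO, reference ligand, or compound. Adding 5 μl of [125I]-Urotensin II, diluted to 5× final concentration in binding buffer, started binding. Plates were sealed with TopSeal-A and incubated 1 hour at room temperature in the dark. Wells were counted for 30 seconds each on a TopCount after a 60-second delay, and percentage inhibition was calculated.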

Human opioid (ORL1) = biological target: T11, Human opioid (ORL1) (Homo sapiens, UniProt P41146); experiment: Radioligand binding, human opioid ORL1 membranes, FlashPlate, [125I]-Nociceptin; conditions: compound at 10 μM
T11 construct: purchased Perkin Elmer Biosignal
T11 sequence (P41146 whole entry): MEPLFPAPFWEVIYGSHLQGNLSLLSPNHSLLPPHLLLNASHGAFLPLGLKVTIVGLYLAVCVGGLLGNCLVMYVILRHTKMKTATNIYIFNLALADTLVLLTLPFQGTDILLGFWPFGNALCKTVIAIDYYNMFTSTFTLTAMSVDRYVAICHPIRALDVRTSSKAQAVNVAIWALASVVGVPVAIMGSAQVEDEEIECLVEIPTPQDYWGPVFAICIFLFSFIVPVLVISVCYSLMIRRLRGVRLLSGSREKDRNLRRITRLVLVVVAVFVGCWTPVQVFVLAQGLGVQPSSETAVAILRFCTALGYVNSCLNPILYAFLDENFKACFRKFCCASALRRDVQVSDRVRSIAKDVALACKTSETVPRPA
Method in brief: as §1

T1 sequence (P41968 whole entry): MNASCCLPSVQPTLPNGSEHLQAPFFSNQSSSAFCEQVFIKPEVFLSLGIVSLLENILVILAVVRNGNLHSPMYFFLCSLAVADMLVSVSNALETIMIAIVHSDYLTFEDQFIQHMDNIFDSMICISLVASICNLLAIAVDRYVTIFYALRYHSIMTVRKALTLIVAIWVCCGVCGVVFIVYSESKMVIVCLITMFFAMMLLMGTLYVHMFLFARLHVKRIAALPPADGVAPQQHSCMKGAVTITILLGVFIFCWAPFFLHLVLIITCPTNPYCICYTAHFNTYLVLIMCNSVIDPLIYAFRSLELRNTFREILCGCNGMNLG

| SMILES | A3: inhibition of radioligand binding, human melanocortin (MC3) (Human Melanocortin (MC3); [125I]-NDP-αMSH) | A6: inhibition of radioligand binding, human melanin-concentrating hormone (MCH1) [1] | A2: inhibition of radioligand binding, human κ-opioid (KOP) (Human κ-Opioid (KOP); [3H]-Diprenorphine) | A7: inhibition of radioligand binding, human μ-opioid (MOP) (Human μ-opioid (MOP); [3H]-Naloxone) | A1: inhibition of radioligand binding, human δ-opioid (DOP) (Human δ-opioid (DOP); [3H]-Bremazocine) | A9: inhibition of radioligand binding, human neuropeptide Y (NPY-Y1) ([2]; [125I]-PYY) | A5: inhibition of radioligand binding, human melanocortin (MC5) (Human melanocortin (MC5); [125I]-NDP-αMSH) | A4: inhibition of radioligand binding, human melanocortin (MC4) (Human Melanocortin (MC4); [125I]-NDP-αMSH) | A8: inhibition of radioligand binding, human neurokinin (NK1) (Human neurokinin (NK1); [125I]-Substance P) | A11: inhibition of radioligand binding, mouse urotensin (mUR2) (Mouse urotensin (mUR2); [125I]-Urotensin II) | A10: inhibition of radioligand binding, human opioid (ORL1) (Human opioid (ORL1); [125I]-Nociceptin) | also measured |
| --- | --- | --- | --- | --- | --- | --- | --- | --- | --- | --- | --- | --- |
| CSC1OC(COCc2ccc(Cl)cc2)C(O)C(OCc2ccccc2)C1NC(=O)CCNC(=N)N (stereo not shown) [compound 254] | – | – | – | – | – | – | – | – | – | – | – | A3: inhibition of radioligand binding (Human Melanocortin (MC3); [125I]-NDP-αMSH, FlashPlate): − (“−” indicates less than 50% inhibition at 10 μM); A6: inhibition of radioligand binding ([1]; [125I]-S36057, FlashPlate): − (“−” indicates less than 50% inhibition at 10 μM); A2: inhibition of radioligand binding (Human κ-Opioid (KOP); [3H]-Diprenorphine, filtration): − (“−” indicates less than 50% inhibition at 10 μM); A7: inhibition of radioligand binding (Human μ-opioid (MOP); [3H]-Naloxone, FlashPlate): − (“−” indicates less than 50% inhibition at 10 μM); A1: inhibition of radioligand binding (Human δ-opioid (DOP); [3H]-Bremazocine, FlashPlate): − (“−” indicates less than 50% inhibition at 10 μM); A9: inhibition of radioligand binding ([2]; [125I]-PYY, FlashPlate): − (“−” indicates less than 50% inhibition at 10 μM); A5: inhibition of radioligand binding (Human melanocortin (MC5); [125I]-NDP-αMSH, FlashPlate): − (“−” indicates less than 50% inhibition at 10 μM); A4: inhibition of radioligand binding (Human Melanocortin (MC4); [125I]-NDP-αMSH, FlashPlate): − (“−” indicates less than 50% inhibition at 10 μM); A8: inhibition of radioligand binding (Human neurokinin (NK1); [125I]-Substance P, filtration): + (“+” indicates greater than 50% inhibition at 10 μM); A11: inhibition of radioligand binding (Mouse urotensin (mUR2); [125I]-Urotensin II, FlashPlate): − (“−” indicates less than 50% inhibition at 10 μM); A10: inhibition of radioligand binding (Human opioid (ORL1); [125I]-Nociceptin, FlashPlate): − (“−” indicates less than 50% inhibition at 10 μM) |
| N=C(N)NCC(=O)N[C@H]1C(OCc2ccc(Cl)cc2)O[C@H](COCc2ccc(Cl)cc2)[C@@H](O)[C@@H]1OCc1ccc2ccccc2c1 (stereo partly shown) [compound 515] | + (“+” indicates greater than 50% inhibition at 10 μM) | + (“+” indicates greater than 50% inhibition at 10 μM) | − (“−” indicates less than 50% inhibition at 10 μM) | − (“−” indicates less than 50% inhibition at 10 μM) | − (“−” indicates less than 50% inhibition at 10 μM) | − (“−” indicates less than 50% inhibition at 10 μM) | + (“+” indicates greater than 50% inhibition at 10 μM) | + (“+” indicates greater than 50% inhibition at 10 μM) | + (“+” indicates greater than 50% inhibition at 10 μM) | − (“−” indicates less than 50% inhibition at 10 μM) | – | A10: inhibition of radioligand binding, human opioid (ORL1) (Human opioid (ORL1); [125I]-Nociceptin, 10 µM): + (“+” indicates greater than 50% inhibition at 10 μM) |
| NCCCC(=O)NC1C(OCc2ccc(Cl)cc2)OC(COCc2ccc(Cl)cc2)C(O)C1OCc1ccc2ccccc2c1 (single isomer, unassigned) [compound 499] | + (“+” indicates greater than 50% inhibition at 10 μM) | – | − (“−” indicates less than 50% inhibition at 10 μM) | – | − (“−” indicates less than 50% inhibition at 10 μM) | − (“−” indicates less than 50% inhibition at 10 μM) | + (“+” indicates greater than 50% inhibition at 10 μM) | + (“+” indicates greater than 50% inhibition at 10 μM) | + (“+” indicates greater than 50% inhibition at 10 μM) | − (“−” indicates less than 50% inhibition at 10 μM) | + (“+” indicates greater than 50% inhibition at 10 μM) | A6: inhibition of radioligand binding, human melanin-concentrating hormone (MCH1) ([1]; 10 µM): − (“−” indicates less than 50% inhibition at 10 μM); A7: inhibition of radioligand binding, human μ-opioid (MOP) (Human μ-opioid (MOP); [3H]-Naloxone, 10 µM): − (“−” indicates less than 50% inhibition at 10 μM) |
| COC[C@H]1OC(OCc2ccc3ccccc3c2)[C@H](NC(=O)CCNC(=N)N)[C@@H](OCc2ccc(-c3ccccc3)cc2)[C@@H]1O (stereo partly shown) [compound 16] | – | – | – | – | – | – | – | – | – | – | – | A3 radioligand binding inhibition (Human Melanocortin (MC3); human melanocortin MC3 membranes): + (“+” indicates greater than 50% inhibition at 10 μM); A6 radioligand binding inhibition ([1]; human MCH1 membranes): + (“+” indicates greater than 50% inhibition at 10 μM); A2 radioligand binding inhibition (Human κ-Opioid (KOP); human κ-opioid (KOP) membranes): + (“+” indicates greater than 50% inhibition at 10 μM); A7 radioligand binding inhibition (Human μ-opioid (MOP); human μ-opioid (MOP) membranes): + (“+” indicates greater than 50% inhibition at 10 μM); A1 radioligand binding inhibition (Human δ-opioid (DOP); human δ-opioid (DOP) membranes): + (“+” indicates greater than 50% inhibition at 10 μM); A9 radioligand binding inhibition ([2]; human NPY-Y1 membranes): − (“−” indicates less than 50% inhibition at 10 μM); A5 radioligand binding inhibition (Human melanocortin (MC5); human melanocortin MC5 membranes): + (“+” indicates greater than 50% inhibition at 10 μM); A4 radioligand binding inhibition (Human Melanocortin (MC4); human melanocortin MC4 membranes): + (“+” indicates greater than 50% inhibition at 10 μM); A8 radioligand binding inhibition (Human neurokinin (NK1); human neurokinin NK1 membranes): + (“+” indicates greater than 50% inhibition at 10 μM); A11 radioligand binding inhibition (Mouse urotensin (mUR2); mouse urotensin mUR2 membranes): − (“−” indicates less than 50% inhibition at 10 μM); A10 radioligand binding inhibition (Human opioid (ORL1); human ORL1 membranes): − (“−” indicates less than 50% inhibition at 10 μM) |
| CSC1OC(COCc2ccc(Cl)cc2)C(O)C(OCc2cccc(N)c2)C1NC(=O)c1c[nH]c2ccccc12 (stereo not shown) [compound 323] | − (“−” indicates less than 50% inhibition at 10 μM) | − (“−” indicates less than 50% inhibition at 10 μM) | − (“−” indicates less than 50% inhibition at 10 μM) | − (“−” indicates less than 50% inhibition at 10 μM) | − (“−” indicates less than 50% inhibition at 10 μM) | − (“−” indicates less than 50% inhibition at 10 μM) | − (“−” indicates less than 50% inhibition at 10 μM) | − (“−” indicates less than 50% inhibition at 10 μM) | + (“+” indicates greater than 50% inhibition at 10 μM) | − (“−” indicates less than 50% inhibition at 10 μM) | − (“−” indicates less than 50% inhibition at 10 μM) | – |
